Test results taken from patent publication US9981942B2, “Piperidine derivatives having multimodal activity against pain” (LABORATORIOS DEL DR. ESTEVE S.A., priority 2013, dated 2018).

Target: σ1 receptor and the μ-opiod receptor
Experiment: μ and σ1 dual binding: combined class from the Ki of both radioligand assays
Set-up: species or system human; key to μ and σ1 dual binding: +: Both Ki-μ and Ki-σ1>=500 nM; ++: One Ki<500 nM while the other Ki is >=500 nM; +++: Both Ki-μ and Ki-σ1<500 nM; ++++: Both Ki-μ and Ki-σ1<100 nM
Details: transfected HEK-293 membranes (σ1), transfected CHO-K1 cell membranes (μ); for μ and σ1 dual binding: combined class for Ki-μ and Ki-σ1
Outline: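 Classes combine both Ki values, split at 500 nM and 100 nM. Human μ-opioid binding used 1 nM [3H]-DAMGO on CHO-K1 membranes (27 °C, 60 min, pH 7.4, naloxone 10 μM for NSB); human σ1 used 5 nM [3H](+)-pentazocine on HEK-293 membranes (37 °C, 120 min, pH 8, haloperidol 10 μM for NSB).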

SMILES	Ki range for both μ and σ1 (dual-binding class)	μ and σ1 dual binding
Oc1cccc(C2CCN(Cc3cn(Cc4cccc(F)n4)nn3)CC2)c1 [Example 132, 3-(1-((1-((6-fluoropyridin-2-yl)methyl)-1H-1,2,3-triazol-4-yl)methyl)piperidin-4-yl)phenol]	< 500 nM	
Oc1cccc(C2CCN(Cc3cn(Cc4ccc(F)cn4)nn3)CC2)c1 [Example 133, 3-(1-((1-((5-fluoropyridin-2-yl)methyl)-1H-1,2,3-triazol-4-yl)methyl)piperidin-4-yl)phenol]	< 500 nM	
Oc1cccc(C2CCN(Cc3cn(Cc4ncccc4F)nn3)CC2)c1 [Example 134, 3-(1-((1-((3-fluoropyridin-2-yl)methyl)-1H-1,2,3-triazol-4-yl)methyl)piperidin-4-yl)phenol]	< 500 nM	
CC(C)S(=O)(=O)Nc1cccc(C2CCN(Cc3cn(Cc4ccc(F)cn4)nn3)CC2)c1 [Example 135, N-(3-(1-((1-((5-fluoropyridin-2-yl)methyl)-1H-1,2,3-triazol-4-yl)methyl)piperidin-4-yl)phenyl)propane-2-sulfonamide]		++
Oc1cc(C2CCN(Cc3cn(Cc4ccccn4)nn3)CC2)ccc1F [Example 136, 2-fluoro-5-(1-((1-(pyridin-2-ylmethyl)-1H-1,2,3-triazol-4-yl)methyl)piperidin-4-yl)phenol]	< 500 nM	
Oc1ccc(F)c(C2CCN(Cc3cn(Cc4ccccn4)nn3)CC2)c1 [Example 137, 4-fluoro-3-(1-((1-(pyridin-2-ylmethyl)-1H-1,2,3-triazol-4-yl)methyl)piperidin-4-yl)phenol]	< 500 nM	
CNS(=O)(=O)c1cccc(C2CCN(Cc3cn(Cc4ccccn4)nn3)CC2)c1 [Example 138, N-methyl-3-(1-((1-(pyridin-2-ylmethyl)-1H-1,2,3-triazol-4-yl)methyl)piperidin-4-yl)benzenesulfonamide]	≥ 500 nM	
c1ccc(Cn2cc(CN3CCC(c4cccc(-c5ncc[nH]5)c4)CC3)nn2)nc1 [Example 139, 2-((4-((4-(3-(1H-imidazol-2-yl)phenyl)piperidin-1-yl)methyl)-1H-1,2,3-triazol-1-yl)methyl)pyridine]		++
NS(=O)(=O)c1cccc(C2CCN(Cc3cn(-c4ccccc4)nn3)CC2)c1 [Example 140, 3-(1-((1-phenyl-1H-1,2,3-triazol-4-yl)methyl)piperidin-4-yl)benzenesulfonamide]	≥ 500 nM	
NS(=O)(=O)c1cccc(C2CCN(Cc3cn(Cc4ccccn4)nn3)CC2)c1 [Example 141, 3-(1-((1-(pyridin-2-ylmethyl)-1H-1,2,3-triazol-4-yl)methyl)piperidin-4-yl)benzenesulfonamide]	≥ 500 nM	
Oc1cccc(C2CCN(Cc3cn(-c4ccccc4F)nn3)CC2)c1 [Example 142, 3-(1-((1-(2-fluorophenyl)-1H-1,2,3-triazol-4-yl)methyl)piperidin-4-yl)phenol]	< 100 nM	
Oc1cccc(C2CCN(Cc3cn(-c4ccc(F)cn4)nn3)CC2)c1 [Example 143, 3-(1-((1-(5-fluoropyridin-2-yl)-1H-1,2,3-triazol-4-yl)methyl)piperidin-4-yl)phenol]	< 100 nM	
Oc1cccc(C2CCN(Cc3cn(Cc4ncccc4Cl)nn3)CC2)c1 [Example 144, 3-(1-((1-((3-chloropyridin-2-yl)methyl)-1H-1,2,3-triazol-4-yl)methyl)piperidin-4-yl)phenol]	< 500 nM	
Oc1cccc(C2CCN(Cc3cn(Cc4cccnc4)nn3)CC2)c1 [Example 145, 3-(1-((1-(pyridin-3-ylmethyl)-1H-1,2,3-triazol-4-yl)methyl)piperidin-4-yl)phenol]	< 500 nM	
Oc1cccc(C2CCN(Cc3cn(-c4c(F)cccc4F)nn3)CC2)c1 [Example 146, 3-(1-((1-(2,6-difluorophenyl)-1H-1,2,3-triazol-4-yl)methyl)piperidin-4-yl)phenol]	< 100 nM	
Oc1cccc(C2CCN(Cc3cn(-c4ccc(F)c(F)c4)nn3)CC2)c1 [Example 147, 3-(1-((1-(3,4-difluorophenyl)-1H-1,2,3-triazol-4-yl)methyl)piperidin-4-yl)phenol]	< 100 nM	
Oc1cccc(C2CCN(Cc3cn(-c4ccc(Cl)cn4)nn3)CC2)c1 [Example 148, 3-(1-((1-(5-chloropyridin-2-yl)-1H-1,2,3-triazol-4-yl)methyl)piperidin-4-yl)phenol]	< 100 nM	
Oc1cccc(C2CCN(Cc3cn(Cc4ncccc4C(F)(F)F)nn3)CC2)c1 [Example 151, 3-(1-((1-((3-(trifluoromethyl)pyridin-2-yl)methyl)-1H-1,2,3-triazol-4-yl)methyl)piperidin-4-yl)phenol]	< 500 nM	

SMILES	Ki range for both μ and σ1 (dual-binding class)	μ and σ1 dual binding
Oc1cccc(C2CCN(Cc3cn(Cc4ccc(C(F)(F)F)cn4)nn3)CC2)c1 [Example 152]	< 100 nM	
Oc1cccc(C2CCN(Cc3cn(Cc4ccc(Cl)cn4)nn3)CC2)c1 [Example 153, 3-(1-((1-((5-chloropyridin-2-yl)methyl)-1H-1,2,3-triazol-4-yl)methyl)piperidin-4-yl)phenol]	< 100 nM	
Oc1cccc(C2CCN(Cc3cn(-c4ncccc4F)nn3)CC2)c1 [Example 154, 3-(1-((1-(3-fluoropyridin-2-yl)-1H-1,2,3-triazol-4-yl)methyl)piperidin-4-yl)phenol]	< 500 nM	
Oc1cccc(C2CCN(Cc3cn(-c4ccc(F)cc4F)nn3)CC2)c1 [Example 155, 3-(1-((1-(2,4-difluorophenyl)-1H-1,2,3-triazol-4-yl)methyl)piperidin-4-yl)phenol]	< 100 nM	
Oc1cccc(C2CCN(Cc3cn(Cc4ncccc4O)nn3)CC2)c1 [Example 156, 2-((4-((4-(3-hydroxyphenyl)piperidin-1-yl)methyl)-1H-1,2,3-triazol-1-yl)methyl)pyridin-3-ol]		++
Oc1cccc(C2CCN(Cc3cn(-c4cc(C(F)(F)F)ccn4)nn3)CC2)c1 [Example 157, 3-(1-((1-(4-(trifluoromethyl)pyridin-2-yl)-1H-1,2,3-triazol-4-yl)methyl)piperidin-4-yl)phenol]	< 500 nM	
COc1cccnc1Cn1cc(CN2CCC(c3cccc(O)c3)CC2)nn1 [Example 158, 3-(1-((1-((3-methoxypyridin-2-yl)methyl)-1H-1,2,3-triazol-4-yl)methyl)piperidin-4-yl)phenol]		++
Oc1ccc(Cn2cc(CN3CCC(c4cccc(O)c4)CC3)nn2)nc1 [Example 159, 6-((4-((4-(3-hydroxyphenyl)piperidin-1-yl)methyl)-1H-1,2,3-triazol-1-yl)methyl)pyridin-3-ol]	≥ 500 nM	
Oc1cccc(C2CCN(Cc3cn(Cc4cc(C(F)(F)F)ccn4)nn3)CC2)c1 [Example 160, 3-(1-((1-((4-(trifluoromethyl)pyridin-2-yl)methyl)-1H-1,2,3-triazol-4-yl)methyl)piperidin-4-yl)phenol]	< 100 nM	
Oc1cccc(C2CCN(Cc3cn(-c4ncccc4Cl)nn3)CC2)c1 [Example 161, 3-(1-((1-(3-chloropyridin-2-yl)-1H-1,2,3-triazol-4-yl)methyl)piperidin-4-yl)phenol]	< 500 nM	
Oc1cccc(C2CCN(CCc3cn(-c4ccccc4)nn3)CC2)c1 [Example 162, 3-(1-(2-(1-phenyl-1H-1,2,3-triazol-4-yl)ethyl)piperidin-4-yl)phenol]	< 100 nM	
CS(=O)(=O)Nc1cccc(C2CCN(Cc3cnn(-c4ccccc4)c3)CC2)c1 [Example 163, N-(3-(1-((1-phenyl-1H-pyrazol-4-yl)methyl)piperidin-4-yl)phenyl)methanesulfonamide]	< 100 nM	
Oc1cccc(C2CCN(Cc3cnn(-c4ccccc4)c3)CC2)c1 [Example 164, 3-(1-((1-phenyl-1H-pyrazol-4-yl)methyl)piperidin-4-yl)phenol]	< 100 nM	
CS(=O)(=O)Nc1cccc([C@@H]2CCN(Cc3cnn(-c4ccccc4)c3)C[C@@H]2O)c1 [Example 165, N-(3-((3R,4S)-3-hydroxy-1-((1-phenyl-1H-pyrazol-4-yl)methyl)piperidin-4-yl)phenyl)methanesulfonamide]	< 500 nM	
CS(=O)(=O)Nc1cccc(C2CCN(Cc3cnn([C@@H]4c5ccccc5C[C@H]4O)c3)CC2)c1 [Example 166, N-(3-(1-((1-((1R,2R)-2-hydroxy-2,3-dihydro-1H-inden-1-yl)-1H-pyrazol-4-yl)methyl)piperidin-4-yl)phenyl)methanesulfonamide]		++
CC(C)S(=O)(=O)Nc1cccc(C2CCN(Cc3cnn(Cc4ccccn4)c3)CC2)c1 [Example 167, N-(3-(1-((1-(pyridin-2-ylmethyl)-1H-pyrazol-4-yl)methyl)piperidin-4-yl)phenyl)propane-2-sulfonamide]	< 500 nM	
CC(C)S(=O)(=O)Nc1cccc([C@@H]2CCN(Cc3cnn(-c4ccccn4)c3)C[C@@H]2O)c1 [Example 169, N-(3-((3R,4S)-3-hydroxy-1-((1-(pyridin-2-yl)-1H-pyrazol-4-yl)methyl)piperidin-4-yl)phenyl)propane-2-sulfonamide]		++
CC(C)S(=O)(=O)Nc1cccc(C2CCN(Cc3cnn(Cc4cccc(F)n4)c3)CC2)c1 [Example 170, N-(3-(1-((1-((6-fluoropyridin-2-yl)methyl)-1H-pyrazol-4-yl)methyl)piperidin-4-yl)phenyl)propane-2-sulfonamide]	< 100 nM	
